According to patent publication US8703961B2, “Thiazole derivatives for the treatment of diseases such as cancer” (Merck Patent GmbH, priority 2009, dated 2014):

Assays:
TBK1 = biological target: T1, TBK1 (Homo sapiens, UniProt Q9UHD2); assay: filter binding kinase assay; type: biochemical; conditions: derived from % inhibition at 1 μM
T1 construct: purchased
T1 sequence (Q9UHD2 1-729): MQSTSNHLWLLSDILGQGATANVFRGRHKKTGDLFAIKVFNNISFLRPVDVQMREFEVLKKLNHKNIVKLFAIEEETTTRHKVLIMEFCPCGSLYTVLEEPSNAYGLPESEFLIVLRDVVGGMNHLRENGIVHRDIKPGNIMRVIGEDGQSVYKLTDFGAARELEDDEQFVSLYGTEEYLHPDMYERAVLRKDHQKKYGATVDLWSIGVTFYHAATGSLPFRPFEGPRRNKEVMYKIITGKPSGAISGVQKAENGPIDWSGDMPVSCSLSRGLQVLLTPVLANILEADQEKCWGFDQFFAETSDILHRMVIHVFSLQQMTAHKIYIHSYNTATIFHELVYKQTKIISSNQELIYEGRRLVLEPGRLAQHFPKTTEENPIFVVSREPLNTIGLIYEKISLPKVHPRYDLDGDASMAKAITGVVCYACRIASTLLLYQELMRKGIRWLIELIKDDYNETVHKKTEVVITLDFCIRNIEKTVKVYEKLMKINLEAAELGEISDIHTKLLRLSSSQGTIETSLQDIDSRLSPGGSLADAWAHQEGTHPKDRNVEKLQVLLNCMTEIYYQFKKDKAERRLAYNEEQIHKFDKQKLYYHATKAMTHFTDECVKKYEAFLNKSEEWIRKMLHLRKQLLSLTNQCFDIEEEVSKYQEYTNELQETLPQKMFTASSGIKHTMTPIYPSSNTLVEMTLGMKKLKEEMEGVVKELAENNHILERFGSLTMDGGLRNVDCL
Experimental: All kinase assays were carried out using the Multidrop 384 from Thermo-Fisher at room temperature in a total assay volume of 25.5 μl. 15 μl of an enzyme mix comprising enzyme and substrate in buffer are added to the test batch comprising either 0.5 μl of test substance, DMSO control or empty container. Test substances are pre-incubated in the presence of the enzyme and substrate for 5 minutes before the reaction is initiated by addition of 10 μl of ATP (concentration kinase-dependent of […]). The reaction is terminated by addition of 5 μl of orthophosphoric acid (50 mM). The test containers are then transferred onto P81 Unifilter plates by means of a “Packard Harvester” and dried in air. The dry Unifilter plates are sealed after the addition of MicroScint O, and the radioactivity is determined in a Packard Topcount NXT.

IC50 (TBK1)	melting point	SMILES
10 to 1000 nM		Nc1ncc(-c2cnn(C3CCNCC3)c2)cc1-c1nc2[nH]c(-c3ccc(F)cc3)cc2s1 [Compound A31]
	139 to 144 °C	CC(C)(C)OC(=O)Nc1ncsc1C#Cc1ccc(F)cc1 [Compound A15, tert-butyl N-{5-[2-(4-fluorophenyl)ethynyl]-1,3-thiazol-4-yl}carbamate]
